Measurements from patent US20230049231A1 (priority 2019, published 2023).
pIC50: −log10 of the molar value.

Key:
hERG channel = molecular target: T1, hERG channel (Homo sapiens, UniProt Q12809); experiment: hERG electrophysiology, automated whole-cell patch clamp (Patchliner); format: cell-based; conditions: hERG channel, whole-cell patch clamp
T1 construct: expressed in transfected cells
Method in brief: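 Currents were recorded at 0.3 Hz from −80 mV, stepping to +20 mV then −50 mV (300 ms each), in stably transfected CHO-K1 cells. Concentrations (30 nM–100 μM, up to 0.3% DMSO) were added sequentially without washout. IC50 came from Hill fits of control-normalized AUC/peak of each train's final pulse.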

Kv1.3 potassium channel = molecular target: T2, Kv1.3 potassium channel (Homo sapiens, UniProt P22001); experiment: Kv1.3 potassium channel blocker activity, automated whole-cell patch clamp (Patchliner); format: cell-based; conditions: Kv1.3 potassium channel, whole-cell patch clamp
T2 construct: expressed in transfected cells
Method in brief: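 IC50 came from Hill-equation fits of peak and AUC currents from the final pulse at each concentration, normalized to compound-free control. Compounds applied consecutively at 30 nM to 100 μM (up to 0.3% DMSO) to Kv1.3-expressing CHO-K1 cells, P/4 leak subtraction. Pulses were +40 mV, 100 ms, from −90 mV holding, at 0.1 Hz on Patchliner.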

T1 sequence (Q12809 whole entry): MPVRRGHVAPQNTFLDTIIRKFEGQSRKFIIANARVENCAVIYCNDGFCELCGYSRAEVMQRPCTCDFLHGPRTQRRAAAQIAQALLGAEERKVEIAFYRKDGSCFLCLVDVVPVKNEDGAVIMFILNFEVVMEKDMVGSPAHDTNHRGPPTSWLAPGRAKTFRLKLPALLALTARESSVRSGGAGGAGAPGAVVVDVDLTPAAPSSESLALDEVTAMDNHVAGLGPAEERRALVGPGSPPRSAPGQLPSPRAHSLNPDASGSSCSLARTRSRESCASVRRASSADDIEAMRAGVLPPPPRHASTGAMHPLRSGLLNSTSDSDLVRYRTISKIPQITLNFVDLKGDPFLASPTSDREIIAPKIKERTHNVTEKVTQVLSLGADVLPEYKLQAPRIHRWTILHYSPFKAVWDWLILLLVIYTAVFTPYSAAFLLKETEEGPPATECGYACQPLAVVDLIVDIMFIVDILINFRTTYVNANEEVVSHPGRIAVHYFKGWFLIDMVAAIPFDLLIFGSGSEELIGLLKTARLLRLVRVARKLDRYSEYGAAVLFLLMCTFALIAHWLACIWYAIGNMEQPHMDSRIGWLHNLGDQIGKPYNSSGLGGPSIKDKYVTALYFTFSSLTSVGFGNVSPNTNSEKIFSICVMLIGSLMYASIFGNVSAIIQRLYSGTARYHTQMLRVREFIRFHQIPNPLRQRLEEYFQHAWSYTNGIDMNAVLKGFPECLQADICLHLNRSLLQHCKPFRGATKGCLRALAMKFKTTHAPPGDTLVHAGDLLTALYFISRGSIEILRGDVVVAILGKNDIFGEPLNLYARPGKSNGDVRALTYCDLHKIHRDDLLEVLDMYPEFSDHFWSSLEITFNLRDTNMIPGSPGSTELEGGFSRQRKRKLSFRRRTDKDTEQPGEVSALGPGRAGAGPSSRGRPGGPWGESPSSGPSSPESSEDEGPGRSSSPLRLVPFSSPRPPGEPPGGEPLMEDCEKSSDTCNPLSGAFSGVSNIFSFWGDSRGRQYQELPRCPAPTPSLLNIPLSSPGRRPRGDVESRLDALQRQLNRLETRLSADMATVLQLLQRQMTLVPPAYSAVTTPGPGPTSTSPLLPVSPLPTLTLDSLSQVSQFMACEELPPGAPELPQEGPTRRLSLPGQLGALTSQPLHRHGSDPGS
T2 sequence (P22001 whole entry): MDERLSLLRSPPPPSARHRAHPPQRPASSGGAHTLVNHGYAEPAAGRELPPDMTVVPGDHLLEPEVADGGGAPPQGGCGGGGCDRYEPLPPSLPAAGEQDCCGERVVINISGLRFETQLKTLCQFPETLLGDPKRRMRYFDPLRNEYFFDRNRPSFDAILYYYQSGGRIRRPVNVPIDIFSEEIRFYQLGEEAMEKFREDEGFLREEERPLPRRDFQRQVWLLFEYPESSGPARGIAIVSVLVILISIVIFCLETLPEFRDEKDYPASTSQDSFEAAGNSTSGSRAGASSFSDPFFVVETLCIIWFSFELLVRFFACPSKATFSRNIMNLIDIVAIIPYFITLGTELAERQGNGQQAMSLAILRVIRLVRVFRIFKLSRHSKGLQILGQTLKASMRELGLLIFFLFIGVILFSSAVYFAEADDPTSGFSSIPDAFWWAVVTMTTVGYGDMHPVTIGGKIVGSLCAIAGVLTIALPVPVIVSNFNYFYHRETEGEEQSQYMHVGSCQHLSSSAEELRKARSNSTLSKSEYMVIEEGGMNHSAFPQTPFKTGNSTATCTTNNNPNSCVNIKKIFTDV

| SMILES | pIC50 (hERG channel) | pIC50 (Kv1.3 potassium channel) |
| --- | --- | --- |
| CC(=O)NCC1OC(=O)N2C[C@@H](c3c(O)ccc(Cl)c3Cl)C[C@@H]12 (stereo partly drawn) [Compound 276, N-[[(6R,7aS)-6-(2,3-dichloro-6-hydroxyphenyl)-3-oxo-tetrahydro-1H-pyrrolo[1,2-c][1,3]oxazol-1-yl]methyl]acetamide] | < 4.52 | > 6.00 |
| CNCC1OC(=O)N2C[C@@H](c3c(O)ccc(Cl)c3Cl)C[C@@H]12 (stereo partly drawn) [Compound 281, (6R,7aS)-6-(2,3-dichloro-6-hydroxyphenyl)-1-[(methylamino)methyl]-tetrahydro-1H-pyrrolo[1,2-c][1,3]oxazol-3-one] | > 4.52 | > 6.00 |
| O=C(C1OC(=O)N2C[C@@H](c3c(O)ccc(Cl)c3Cl)C[C@@H]12)N1CCNCC1 (stereo partly drawn) [Compound 289, (6R,7aS)-6-(2,3-dichloro-6-hydroxyphenyl)-1-(piperazine-1-carbonyl)-tetrahydro-1H-pyrrolo[1,2-c][1,3]oxazol-3-one] | < 4.52 | > 6.00 |
| NCCN1C[C@@H]2C[C@H](c3c(O)ccc(Cl)c3Cl)CN2C1=O [Compound 292, (6R,7aS)-2-(2-aminoethyl)-6-(2,3-dichloro-6-hydroxyphenyl)-tetrahydro-1H-pyrrolo[1,2-c]imidazol-3-one] | > 4.52 | > 6.00 |
| O=C1NC[C@@H]2C[C@H](c3c(O)ccc(Cl)c3Cl)CN12 [Compound 293, (6R,7aS)-6-(2,3-dichloro-6-hydroxyphenyl)-hexahydropyrrolo[1,2-c]imidazol-3-one] | < 4.52 | > 6.00 |
